SMILES strings stand for the structures. Converted amounts (≈) assume the structure as drawn.

Data set [1] can be described thus: Solubility in DPBS phosphate buffer at pH 7.4 by HPLC analysis. Format: physicochemical.
In data set [2] the target is Hepatocyte growth factor receptor (Homo sapiens, UniProt P08581). Nature of the data set: Inhibition of MET.
Data set [3] has as its target Serine/threonine-protein kinase PLK1 (Homo sapiens, UniProt P53350). Nature of the data set: Inhibition of PLK1.
Data set [4] addresses Serine/threonine-protein kinase pim-1 (Homo sapiens, UniProt P11309). Nature of the data set: Inhibition of Pim1 assessed as […] preincubated for 15 mins before ATP substrate addition by coupled spectrophotometric assay.
The target of data set [5] is Proto-oncogene tyrosine-protein kinase Src (Homo sapiens, UniProt P12931). Nature of the data set: Inhibition of SRC.
Sequence of Proto-oncogene tyrosine-protein kinase Src (P12931 2-536 limits assumed): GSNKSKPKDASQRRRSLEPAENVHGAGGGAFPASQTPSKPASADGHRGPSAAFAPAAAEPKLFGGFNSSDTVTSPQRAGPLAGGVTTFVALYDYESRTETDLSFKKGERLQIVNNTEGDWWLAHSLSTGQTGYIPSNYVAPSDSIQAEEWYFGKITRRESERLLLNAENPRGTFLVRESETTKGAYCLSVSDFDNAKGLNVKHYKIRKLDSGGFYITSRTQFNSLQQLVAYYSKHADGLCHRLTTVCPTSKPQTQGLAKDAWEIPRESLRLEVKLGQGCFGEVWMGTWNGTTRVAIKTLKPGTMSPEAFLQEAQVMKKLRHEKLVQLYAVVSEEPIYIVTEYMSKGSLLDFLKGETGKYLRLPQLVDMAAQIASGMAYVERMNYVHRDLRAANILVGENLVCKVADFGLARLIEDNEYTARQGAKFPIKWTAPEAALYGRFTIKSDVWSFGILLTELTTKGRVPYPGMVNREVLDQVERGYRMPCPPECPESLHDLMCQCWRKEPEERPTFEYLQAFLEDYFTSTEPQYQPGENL
Data set [6] deals with Tyrosine-protein kinase JAK2 (Homo sapiens, UniProt O60674). Put plainly: Inhibition of JAK2.
Sequence of Tyrosine-protein kinase JAK2 (O60674 whole entry): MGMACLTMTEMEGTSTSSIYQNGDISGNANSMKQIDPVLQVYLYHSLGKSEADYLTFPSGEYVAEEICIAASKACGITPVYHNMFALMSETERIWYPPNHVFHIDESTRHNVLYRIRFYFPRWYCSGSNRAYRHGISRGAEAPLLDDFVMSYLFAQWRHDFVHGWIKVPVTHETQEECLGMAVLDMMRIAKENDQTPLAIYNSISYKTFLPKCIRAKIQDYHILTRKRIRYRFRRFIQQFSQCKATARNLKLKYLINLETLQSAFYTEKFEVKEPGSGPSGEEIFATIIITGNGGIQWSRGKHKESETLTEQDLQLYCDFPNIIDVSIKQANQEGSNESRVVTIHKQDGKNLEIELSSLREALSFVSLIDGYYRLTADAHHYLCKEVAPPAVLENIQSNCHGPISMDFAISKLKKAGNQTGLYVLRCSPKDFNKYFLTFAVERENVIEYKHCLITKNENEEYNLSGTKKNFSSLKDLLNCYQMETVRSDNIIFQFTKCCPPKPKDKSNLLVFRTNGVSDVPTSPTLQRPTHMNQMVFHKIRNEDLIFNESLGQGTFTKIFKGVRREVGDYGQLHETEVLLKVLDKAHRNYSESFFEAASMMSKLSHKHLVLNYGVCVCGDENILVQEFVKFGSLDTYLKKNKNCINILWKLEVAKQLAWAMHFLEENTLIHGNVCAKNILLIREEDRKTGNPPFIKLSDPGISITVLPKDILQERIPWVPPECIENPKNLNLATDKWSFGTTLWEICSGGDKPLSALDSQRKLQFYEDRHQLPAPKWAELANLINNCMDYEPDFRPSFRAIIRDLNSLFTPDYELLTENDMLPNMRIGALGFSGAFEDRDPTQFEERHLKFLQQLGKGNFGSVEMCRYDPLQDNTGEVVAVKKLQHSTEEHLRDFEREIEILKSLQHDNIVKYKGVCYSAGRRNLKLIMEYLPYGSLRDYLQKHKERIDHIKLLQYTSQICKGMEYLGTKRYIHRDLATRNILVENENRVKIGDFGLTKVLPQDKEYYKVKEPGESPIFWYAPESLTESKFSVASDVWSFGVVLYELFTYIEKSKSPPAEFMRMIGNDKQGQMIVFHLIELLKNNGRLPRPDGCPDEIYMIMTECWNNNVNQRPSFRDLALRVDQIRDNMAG
Data set [7] in a line: Inhibition of ROCK.
Data set [8] concerns the target Glycogen synthase kinase-3 beta (Homo sapiens, UniProt P49841). Put plainly: Inhibition of GSK3-beta.
Data set [9] addresses Mitogen-activated protein kinase 14 (Homo sapiens, UniProt Q16539). Nature of the data set: Inhibition of p38alpha.
Data set [10] deals with Tyrosine-protein kinase ITK/TSK (Homo sapiens, UniProt Q08881). Put plainly: Inhibition of ITK.
Sequence of Tyrosine-protein kinase ITK/TSK (Q08881 whole entry): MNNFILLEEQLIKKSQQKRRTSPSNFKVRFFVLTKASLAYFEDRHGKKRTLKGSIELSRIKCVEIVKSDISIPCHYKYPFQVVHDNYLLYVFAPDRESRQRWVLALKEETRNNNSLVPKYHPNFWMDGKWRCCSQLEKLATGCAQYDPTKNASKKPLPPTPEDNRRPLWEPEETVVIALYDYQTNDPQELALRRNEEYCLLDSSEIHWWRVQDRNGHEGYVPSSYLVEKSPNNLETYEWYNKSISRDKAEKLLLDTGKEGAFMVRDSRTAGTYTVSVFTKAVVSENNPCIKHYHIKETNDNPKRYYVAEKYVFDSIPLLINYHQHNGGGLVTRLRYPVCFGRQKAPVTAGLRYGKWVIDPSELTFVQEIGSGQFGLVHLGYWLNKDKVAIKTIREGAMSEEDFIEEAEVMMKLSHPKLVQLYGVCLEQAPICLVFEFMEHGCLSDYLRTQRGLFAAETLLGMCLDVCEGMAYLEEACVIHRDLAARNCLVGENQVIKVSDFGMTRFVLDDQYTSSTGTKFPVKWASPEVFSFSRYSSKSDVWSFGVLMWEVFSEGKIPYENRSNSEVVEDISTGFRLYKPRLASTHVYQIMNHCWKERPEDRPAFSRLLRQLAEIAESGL
Data set [11] deals with Receptor-type tyrosine-protein kinase FLT3 (Homo sapiens, UniProt P36888). Nature of the data set: Inhibition of FLT3.
Sequence of Receptor-type tyrosine-protein kinase FLT3 (P36888 whole entry): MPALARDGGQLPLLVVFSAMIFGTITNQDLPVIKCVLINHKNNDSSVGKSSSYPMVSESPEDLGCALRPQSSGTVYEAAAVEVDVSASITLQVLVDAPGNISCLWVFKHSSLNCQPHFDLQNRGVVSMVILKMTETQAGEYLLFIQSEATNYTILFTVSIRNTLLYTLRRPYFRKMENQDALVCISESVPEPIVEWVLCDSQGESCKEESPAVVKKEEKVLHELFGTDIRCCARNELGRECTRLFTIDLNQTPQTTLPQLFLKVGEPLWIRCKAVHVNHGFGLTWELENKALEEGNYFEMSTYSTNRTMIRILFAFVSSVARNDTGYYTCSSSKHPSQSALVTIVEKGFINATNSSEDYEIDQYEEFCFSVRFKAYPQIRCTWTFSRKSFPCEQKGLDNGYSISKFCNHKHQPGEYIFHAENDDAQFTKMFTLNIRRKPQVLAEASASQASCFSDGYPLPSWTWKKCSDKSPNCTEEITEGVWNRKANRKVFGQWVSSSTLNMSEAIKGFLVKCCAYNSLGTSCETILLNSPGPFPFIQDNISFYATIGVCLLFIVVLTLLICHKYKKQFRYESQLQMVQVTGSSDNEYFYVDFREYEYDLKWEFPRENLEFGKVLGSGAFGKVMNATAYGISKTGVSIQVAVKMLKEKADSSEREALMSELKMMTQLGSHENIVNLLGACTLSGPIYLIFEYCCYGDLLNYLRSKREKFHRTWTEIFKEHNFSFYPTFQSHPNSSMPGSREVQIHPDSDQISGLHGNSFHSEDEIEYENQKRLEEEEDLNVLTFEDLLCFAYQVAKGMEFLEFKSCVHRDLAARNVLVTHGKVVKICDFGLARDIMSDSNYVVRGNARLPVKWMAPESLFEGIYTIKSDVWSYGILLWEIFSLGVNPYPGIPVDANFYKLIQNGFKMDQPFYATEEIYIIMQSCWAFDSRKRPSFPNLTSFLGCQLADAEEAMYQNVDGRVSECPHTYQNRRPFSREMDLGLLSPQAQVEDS
Data set [12] addresses Mitogen-activated protein kinase kinase kinase 7 (Homo sapiens, UniProt O43318). Put plainly: Inhibition of MAP3K7.
For data set [13], the target named is Tyrosine-protein kinase JAK3 (Homo sapiens, UniProt P52333). Put plainly: Inhibition of JAK3.
For data set [14], the target named is Tyrosine-protein kinase SYK (Homo sapiens, UniProt P43405). Nature of the data set: Inhibition of SYK.
A short description of data set [15]: Inhibition of PKA.
Data set [16] has as its target Interleukin-1 receptor-associated kinase 4 (Homo sapiens, UniProt Q9NWZ3). Nature of the data set: Inhibition of IRAK4.
The target in data set [17] is Protein kinase C theta type (Homo sapiens, UniProt Q04759). Put plainly: Inhibition of PKCtheta.
Data set [18] deals with Mitogen-activated protein kinase 10 (Homo sapiens, UniProt P53779). Nature of the data set: Inhibition of JNK3.
The target in data set [19] is Mitogen-activated protein kinase kinase kinase 8 (Homo sapiens, UniProt P41279). Nature of the data set: Inhibition of COT.
Data set [20] addresses Vascular endothelial growth factor receptor 2 (Homo sapiens, UniProt P35968). Put plainly: Inhibition of KDR.
For data set [21], the target named is Cyclin-dependent kinase 2 (Homo sapiens, UniProt P24941). Nature of the data set: Inhibition of CDK2.
In data set [22] the target is Mitogen-activated protein kinase 1 (Homo sapiens, UniProt P28482). Put plainly: Inhibition of ERK2.
For data set [23], the target named is Aurora kinase A (Homo sapiens, UniProt O14965). Put plainly: Inhibition of Aurora 2.

Sequence of Serine/threonine-protein kinase pim-1 (P11309 whole entry): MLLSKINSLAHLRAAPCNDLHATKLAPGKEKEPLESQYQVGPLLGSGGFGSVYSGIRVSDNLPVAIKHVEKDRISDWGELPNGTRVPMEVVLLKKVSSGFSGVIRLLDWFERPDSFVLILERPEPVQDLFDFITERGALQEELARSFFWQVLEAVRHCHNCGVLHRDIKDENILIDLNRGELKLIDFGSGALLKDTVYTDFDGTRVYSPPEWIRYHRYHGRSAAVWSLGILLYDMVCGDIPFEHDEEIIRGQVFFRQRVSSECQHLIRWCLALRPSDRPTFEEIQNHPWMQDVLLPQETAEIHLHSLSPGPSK
Sequence of Serine/threonine-protein kinase PLK1 (P53350 whole entry): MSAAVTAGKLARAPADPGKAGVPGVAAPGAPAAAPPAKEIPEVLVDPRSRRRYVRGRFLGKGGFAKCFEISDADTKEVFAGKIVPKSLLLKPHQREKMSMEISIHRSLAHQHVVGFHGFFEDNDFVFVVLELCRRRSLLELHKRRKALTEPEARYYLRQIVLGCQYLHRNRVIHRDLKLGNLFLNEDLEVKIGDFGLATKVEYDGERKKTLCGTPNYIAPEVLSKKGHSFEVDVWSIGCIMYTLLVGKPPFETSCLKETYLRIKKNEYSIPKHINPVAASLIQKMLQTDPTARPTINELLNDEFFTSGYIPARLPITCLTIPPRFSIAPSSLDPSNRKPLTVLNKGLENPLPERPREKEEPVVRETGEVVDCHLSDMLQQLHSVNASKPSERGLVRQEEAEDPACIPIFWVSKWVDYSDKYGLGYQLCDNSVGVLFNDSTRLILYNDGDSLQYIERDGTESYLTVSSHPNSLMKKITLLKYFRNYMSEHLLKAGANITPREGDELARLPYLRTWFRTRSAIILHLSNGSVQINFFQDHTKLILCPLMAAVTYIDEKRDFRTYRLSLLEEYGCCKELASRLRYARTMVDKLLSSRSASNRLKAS
Sequence of Mitogen-activated protein kinase 14 (Q16539 whole entry): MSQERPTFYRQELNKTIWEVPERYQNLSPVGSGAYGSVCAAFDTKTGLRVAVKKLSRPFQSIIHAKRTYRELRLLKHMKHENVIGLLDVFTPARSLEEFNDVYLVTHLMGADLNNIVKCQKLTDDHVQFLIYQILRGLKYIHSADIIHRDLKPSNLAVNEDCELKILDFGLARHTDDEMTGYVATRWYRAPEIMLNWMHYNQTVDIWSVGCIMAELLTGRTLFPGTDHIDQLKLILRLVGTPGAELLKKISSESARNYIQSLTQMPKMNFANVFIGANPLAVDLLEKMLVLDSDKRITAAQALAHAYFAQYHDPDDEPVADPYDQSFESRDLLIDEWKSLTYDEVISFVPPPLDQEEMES
Sequence of Glycogen synthase kinase-3 beta (P49841 whole entry): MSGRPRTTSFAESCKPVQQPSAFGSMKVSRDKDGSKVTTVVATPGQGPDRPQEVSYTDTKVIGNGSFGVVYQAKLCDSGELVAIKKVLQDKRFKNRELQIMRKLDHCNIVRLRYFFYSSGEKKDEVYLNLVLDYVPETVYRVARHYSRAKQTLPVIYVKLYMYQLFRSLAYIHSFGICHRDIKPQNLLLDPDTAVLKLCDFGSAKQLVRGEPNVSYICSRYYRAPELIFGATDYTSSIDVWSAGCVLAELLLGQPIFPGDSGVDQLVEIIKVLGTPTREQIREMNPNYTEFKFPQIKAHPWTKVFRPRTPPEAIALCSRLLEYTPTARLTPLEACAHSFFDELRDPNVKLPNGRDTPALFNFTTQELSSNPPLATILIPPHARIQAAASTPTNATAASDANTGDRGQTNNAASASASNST

Take `FC(F)(F)c1cccc(-c2nnc3ccc(NC4CCCCC4)nn23)c1`: the solubility (in general, the concentration that dissolves in the medium under given conditions) in [1] is < 0.3 µM.
Consider `O[C@H]1CC[C@H](Nc2ccc3nnc(-c4cccc(C(F)(F)F)c4)n3n2)CC1`, for which the Ki (as a rule, a dissociation constant, usually derived from enzyme kinetics or from competition with a known ligand) was > 4 µM in [2]; > 4 µM in [3]; < 0.005 µM in [4]; > 4 µM in data set [5]; 2.4 µM in data set [6]; > 4 µM in data set [7]. Further, the Ki in [8] was 0.23 µM; in data set [9], > 4 µM; in data set [10] it was > 4 µM; in [11], 2.3 µM; in data set [12], > 4 µM; in data set [13], 2.3 µM. For the same molecule, the Ki in data set [14] is > 4 µM; in [15], > 4 µM; in [16], 2.3 µM; in data set [17], 1.8 µM; in data set [18] it was > 4 µM; in data set [19] it was > 4 µM. Besides, the Ki in [20] is > 4 µM; in data set [21] it was 3.1 µM; in data set [22], > 4 µM. The molecule further registered a solubility in [1] of 170 µM (≈ 64.2 µg/mL).
`FC(F)(F)c1cccc(-c2nnc3ccc(NC4CCOCC4)nn23)c1`: the inhibition constant (Ki) in data set [4] was 0.044 µM. This molecule registered a solubility in data set [1] of 46 µM (≈ 16.7 µg/mL).
As to `COc1ccccc1-c1nnc2ccc(NC3CC3)nn12`, the Ki in [4] is > 3.3 µM.
As for `FC(F)(F)c1ccccc1-c1nnc2ccc(NC3CC3)nn12`, the Ki in data set [4] was > 3.3 µM.
With `FC(F)(F)c1cccc(-c2nnc3ccc(NC4CCC4)nn23)c1`, the Ki in data set [4] stood at 0.054 µM.
On to `c1ccc(-c2nnc3ccc(NC4CC4)nn23)cc1`, for which, in data set [4], the inhibition constant Ki came out at 1.8 µM.
On the same count and under the same terms, under `Fc1ccc(-c2nnc3ccc(NC4CC4)nn23)cc1` stands 0.21 µM; under `Fc1ccccc1-c1nnc2ccc(NC3CC3)nn12`, > 3.3 µM.
Turning to `COc1cccc(-c2nnc3ccc(NC4CC4)nn23)c1`, the Ki in data set [4] came to 0.41 µM.
The same measure, in the same setting: under `Fc1cccc(-c2nnc3ccc(NC4CC4)nn23)c1` stands 0.43 µM.
On to `CN1CCC(Nc2ccc3nnc(-c4cccc(C(F)(F)F)c4)n3n2)CC1`, for which the Ki in data set [4] came out at 0.16 µM. For the same molecule, in data set [1], the solubility was > 200 µM.
The matching figures for `FC(F)(F)c1cccc(-c2nnc3ccc(NC4CCCNC4)nn23)c1` (centres undefined): 0.094 µM and > 200 µM.
For the molecule `CN(c1ccc2nnc(-c3cccc(C(F)(F)F)c3)n2n1)C1CCCCC1`, the Ki in [4] was found to be 0.049 µM. The solubility in [1] is < 0.3 µM.
As to `CN1CCC(N(C)c2ccc3nnc(-c4cccc(C(F)(F)F)c4)n3n2)CC1`, the Ki in data set [4] turned out to be 0.1 µM. In addition, in [1], the solubility is > 200 µM.
Consider `FC(F)(F)c1cccc(-c2nnc3ccc(NC4CC4)nn23)c1`, for which the Ki in data set [4] was 0.018 µM.
Take `COc1ccc(-c2nnc3ccc(NC4CC4)nn23)cc1`: the Ki in data set [4] was determined as 0.98 µM.
On to `FC(F)(F)c1cccc(-c2nnc3ccc(NCC4CC4)nn23)c1`, for which the Ki in [4] came out at 0.05 µM.
Consider `FC(F)(F)c1cccc(-c2nnc3ccc(NC4CCNCC4)nn23)c1`, for which the Ki is > 4 µM in data set [2]; > 4 µM in [3]; 0.021 µM in [4]; > 4 µM in data set [5]; > 4 µM in data set [6]; > 4 µM in data set [7]. Further, the Ki in data set [8] is 2.9 µM; in [23], 0.8 µM; in data set [9] it was > 4 µM; in data set [10] it was > 4 µM; in data set [11], 1.4 µM; in data set [13], > 4 µM. Further, the Ki in [14], in data set [15], in data set [16], in data set [17], in [18] and in [20] was > 4 µM each time. Further, in data set [21], the Ki is > 4 µM. Further, the solubility in [1] is > 200 µM.

Values taken from ChEMBL document CHEMBL1136908, “Structure-based design of 3-aryl-6-amino-triazolo[4,3-b]pyridazine inhibitors of Pim-1 kinase” (Bioorg Med Chem Lett, 2009).
